# In patent US20240158377A1, “NOVEL SALT FORMS OF A 4H-PYRAN-4-ONE STRUCTURED CYP11A1 INHIBITOR” (Orion Corporation, priority 2021, published 2024):
# Where a name gives a salt, the structure may show the parent alone.
# Assays:
# Format in all cases: physicochemical
# [1] = Weight loss of the salts during heating by thermogravimetric analysis (TGA); conditions: for Weight loss: TGA, heating rate 10° C./min, open pan
# Method: Weight loss of the salts during heating was determined by thermogravimetric analysis (TGA) thermograms collected on TGA equipment (TA Instruments). Heating rate 10° C./min, 25-300° C., open pan.
# Weight loss of each salt of compound (I) during heating was determined by thermogravimetric analysis (TGA) thermograms collected on TGA equipment (TA Instruments). Heating rate 10° C./min, 25-300° C., open pan.
# [2] = Chemical stability: accelerated stability study of pressed tablets, degradation product A, prediction with ASAPprime software; conditions: summary statement
# Method: The degradation rate of various salts of compound (I) was determined by measuring the amount of shelf-life determining degradation product 2-[(5-{[1-(methanesulfonyl)piperidin-4-yl]methoxy}-4-oxo-4H-pyran-2-yl)methyl]-2,3-dihydro-1H-isoindol-1 -one (degradation product A) from an accelerated stability study wherein samples were stored at various different temperature and relative humidity conditions. Each sample consisted of a pressed tablet containing a constant amount of the tested salt together with conventional excipients. The predicted increase (Δ %) of the degradation product A after 5 years was calculated with ASAPprime® software using the following parameters: • Bottle volume and material: 100 ml (HDPE HIS) • Desiccant: Silica (1 g) • Tablet amount: 60 • Conditions: 25° C./60% RH
# [3] = Weight loss of the salts during heating by thermogravimetric analysis (TGA); conditions: heating rate 10° C./min, 30-250° C., open pan, weight loss over 30-200° C.
structure (smiles),measurement,setting,value
"CS(=O)(=O)N1CCC(COc2coc(CN3Cc4ccccc4C3)cc2=O)CC1 [1,2-Ethanedisulfonic acid salt, 2-(isoindolin-2-ylmethyl)-5-((1-(methylsulfonyl)piperidin-4-yl)methoxy)-4H-pyran-4-one]",Weight loss,[1]; weight loss over 25-100° C.,9.9%
"O=S(=O)(O)c1cccc2c(S(=O)(=O)O)cccc12 [1,5-Naphthalenedisulfonic acid]",Weight loss,[1]; weight loss over 25-220° C.,0.3%
O=S(=O)(O)c1ccc2ccccc2c1 [2-Naphthalenesulphonic acid],Weight loss,[1]; weight loss over 25-225° C.,<0.1%
"CS(=O)(=O)N1CCC(COc2coc(CN3Cc4ccccc4C3)cc2=O)CC1 [Benzenesulfonic acid salt, 2-(isoindolin-2-ylmethyl)-5-((1-(methylsulfonyl)piperidin-4-yl)methoxy)-4H-pyran-4-one]",Weight loss,[1]; weight loss over 25-220° C.,0.3%
"CS(=O)(=O)N1CCC(COc2coc(CN3Cc4ccccc4C3)cc2=O)CC1 [Ethanesulfonic acid salt, 2-(isoindolin-2-ylmethyl)-5-((1-(methylsulfonyl)piperidin-4-yl)methoxy)-4H-pyran-4-one]",Weight loss,[1]; weight loss over 25-190° C.,<0.3%
"CS(=O)(=O)N1CCC(COc2coc(CN3Cc4ccccc4C3)cc2=O)CC1 [Hydrochloric acid salt (form 3), 2-(isoindolin-2-ylmethyl)-5-((1-(methylsulfonyl)piperidin-4-yl)methoxy)-4H-pyran-4-one]",Weight loss,[1]; weight loss over 25-190° C.,0.5%
"CS(=O)(=O)N1CCC(COc2coc(CN3Cc4ccccc4C3)cc2=O)CC1 [Maleic acid salt (form 3), 2-(isoindolin-2-ylmethyl)-5-((1-(methylsulfonyl)piperidin-4-yl)methoxy)-4H-pyran-4-one]",Weight loss,[1]; weight loss over 25-120° C.,3.2%
"CS(=O)(=O)N1CCC(COc2coc(CN3Cc4ccccc4C3)cc2=O)CC1 [Methanesulfonic acid salt, 2-(isoindolin-2-ylmethyl)-5-((1-(methylsulfonyl)piperidin-4-yl)methoxy)-4H-pyran-4-one]",Weight loss,[1]; weight loss over 25-75° C.,5%
"CS(=O)(=O)N1CCC(COc2coc(CN3Cc4ccccc4C3)cc2=O)CC1 [Nitric acid salt, 2-(isoindolin-2-ylmethyl)-5-((1-(methylsulfonyl)piperidin-4-yl)methoxy)-4H-pyran-4-one]",Weight loss,[1]; weight loss over 25-205° C.,0.9%
"CS(=O)(=O)N1CCC(COc2coc(CN3Cc4ccccc4C3)cc2=O)CC1 [Oxalic acid salt (form 1), 2-(isoindolin-2-ylmethyl)-5-((1-(methylsulfonyl)piperidin-4-yl)methoxy)-4H-pyran-4-one]",Weight loss,[1]; weight loss over 25-175° C.,0.4%
"CS(=O)(=O)N1CCC(COc2coc(CN3Cc4ccccc4C3)cc2=O)CC1 [Sulfuric acid salt (form 2), 2-(isoindolin-2-ylmethyl)-5-((1-(methylsulfonyl)piperidin-4-yl)methoxy)-4H-pyran-4-one]",Weight loss,[1]; weight loss over 25-100° C.,8%
"CS(=O)(=O)N1CCC(COc2coc(CN3Cc4ccccc4C3)cc2=O)CC1 [hydrobromic acid salt, 2-(isoindolin-2-ylmethyl)-5-((1-(methylsulfonyl)piperidin-4-yl)methoxy)-4H-pyran-4-one]",Weight loss,[1]; weight loss over 25-220° C.,0.1%
"CS(=O)(=O)N1CCC(COc2coc(CN3Cc4ccccc4C3)cc2=O)CC1 [p-toluenesulfonic acid salt, 2-(isoindolin-2-ylmethyl)-5-((1-(methylsulfonyl)piperidin-4-yl)methoxy)-4H-pyran-4-one]",solid-state stability in pharmaceutical dosage forms such as tablets (in words),[2],excellent sold-state stability
same,weight loss during heating (in words),"[1]; crystalline salt, summary statement",low weight loss during heating
same,Weight loss,[3],0.2%
